Data reported in the supplement of paper PMC10307832.

Key:
Assay in all cases: relative viability (nuclei count vs DMSO), 5 days (fraction); higher = more cells survive
201T = test system: 201T
In short: (§1)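 Five library-drug doses in √10 steps were combined with a fixed anchor-drug dose, or a single drug was given alone, by pin tool to lung cancer cell lines in 1536-well plates the day after seeding. Nuclei were stained and counted after 5 days. Relative viability is the nuclei count in treated wells over that in vehicle wells, taken as the median of duplicate plates.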

NCI-H441 = test system: NCI-H441
In short: as §1

NCI-H838 = test system: NCI-H838
In short: as §1

HCC-366 = test system: HCC-366
In short: as §1

CAL-12T = test system: CAL-12T
In short: as §1

EKVX = test system: EKVX
In short: as §1

LK-2 = test system: LK-2
In short: as §1

ABC-1 = test system: ABC-1
In short: as §1

LU99A = test system: LU99A
In short: as §1

COR-L 105 = test system: COR-L 105
In short: as §1

HARA = test system: HARA
In short: as §1

NCI-H727 = test system: NCI-H727
In short: as §1

NCI-H661 = test system: NCI-H661
In short: as §1

NCI-H2170 = test system: NCI-H2170
In short: as §1

NCI-H2009 = test system: NCI-H2009
In short: as §1

PC-14 = test system: PC-14
In short: as §1

NCI-H3122 = test system: NCI-H3122
In short: as §1

COR-L23 = test system: COR-L23
In short: as §1

NCI-H1666 = test system: NCI-H1666
In short: as §1

SW 900 = test system: SW 900
In short: as §1

BEN = test system: BEN
In short: as §1

NCI-H1650 = test system: NCI-H1650
In short: as §1

NCI-H1437 = test system: NCI-H1437
In short: as §1

`O=C(O)c1ccc(-c2c[nH]c3ncc(-c4ccccc4)cc23)cc1C1CCCC1` + Cc1cc(Nc2cc(N3CCN(C)CC3)nc(Sc3ccc(NC(=O)C4CC4)cc3)n2)n[nH]1 [Tozasertib] (partner 0.1 µM) was tested, and the relative viability (201T; first compound 0.04 µM) was 0.943, the relative viability (201T; first compound 0.1265 µM) was 0.973 and the relative viability (201T; first compound 0.4 µM) was 0.893. The relative viability (201T; first compound 1.265 µM) was 0.771, the relative viability (NCI-H441; first compound 0.04 µM) was 0.71 and the relative viability (NCI-H441; first compound 0.1265 µM) was 0.638. For the same molecule, the relative viability (NCI-H441; first compound 0.4 µM) was 0.548, the relative viability (NCI-H441; first compound 1.265 µM) was 0.325 and the relative viability (NCI-H838; first compound 0.04 µM) was 0.291. It also gave a relative viability (NCI-H838; first compound 0.1265 µM) of 0.274, a relative viability (NCI-H838; first compound 0.4 µM) of 0.232 and a relative viability (NCI-H838; first compound 1.265 µM) of 0.229. The relative viability (HCC-366; first compound 0.04 µM) was 0.128, the relative viability (HCC-366; first compound 0.1265 µM) was 0.163 and the relative viability (HCC-366; first compound 0.4 µM) was 0.0869. The relative viability (HCC-366; first compound 1.265 µM) was 0.0888, the relative viability (CAL-12T; first compound 0.04 µM) was 0.314 and the relative viability (CAL-12T; first compound 0.1265 µM) was 0.374. For the same molecule, the relative viability (CAL-12T; first compound 0.4 µM) was 0.315, the relative viability (CAL-12T; first compound 1.265 µM) was 0.337 and the relative viability (EKVX; first compound 0.04 µM) was 0.404. For the same molecule, the relative viability (EKVX; first compound 0.1265 µM) was 0.443, the relative viability (EKVX; first compound 0.4 µM) was 0.416 and the relative viability (EKVX; first compound 1.265 µM) was 0.364. For the same molecule, the relative viability (LK-2; first compound 0.04 µM) was 0.186, the relative viability (LK-2; first compound 0.1265 µM) was 0.161 and the relative viability (LK-2; first compound 0.4 µM) was 0.181. For the same molecule, the relative viability (LK-2; first compound 1.265 µM) was 0.184, the relative viability (ABC-1; first compound 0.04 µM) was 0.2 and the relative viability (ABC-1; first compound 0.1265 µM) was 0.192. The relative viability (ABC-1; first compound 0.4 µM) was 0.147, the relative viability (ABC-1; first compound 1.265 µM) was 0.18 and the relative viability (LU99A; first compound 0.04 µM) was 0.268. The relative viability (LU99A; first compound 0.1265 µM) was 0.253, the relative viability (LU99A; first compound 0.4 µM) was 0.281 and the relative viability (LU99A; first compound 1.265 µM) was 0.257. It also gave a relative viability (COR-L 105; first compound 0.04 µM) of 0.304, a relative viability (COR-L 105; first compound 0.1265 µM) of 0.36 and a relative viability (COR-L 105; first compound 0.4 µM) of 0.357. The relative viability (COR-L 105; first compound 1.265 µM) was 0.36, the relative viability (HARA; first compound 0.04 µM) was 0.104 and the relative viability (HARA; first compound 0.1265 µM) was 0.0989. It also gave a relative viability (HARA; first compound 0.4 µM) of 0.197, a relative viability (HARA; first compound 1.265 µM) of 0.0904 and a relative viability (NCI-H727; first compound 0.04 µM) of 0.67. For the same molecule, the relative viability (NCI-H727; first compound 0.1265 µM) was 0.533, the relative viability (NCI-H727; first compound 0.4 µM) was 0.407 and the relative viability (NCI-H727; first compound 1.265 µM) was 0.578. It also gave a relative viability (NCI-H661; first compound 0.04 µM) of 0.367, a relative viability (NCI-H661; first compound 0.1265 µM) of 0.36 and a relative viability (NCI-H661; first compound 0.4 µM) of 0.353. For the same molecule, the relative viability (NCI-H661; first compound 1.265 µM) was 0.34, the relative viability (NCI-H2170; first compound 0.04 µM) was 0.721 and the relative viability (NCI-H2170; first compound 0.1265 µM) was 0.726. For the same molecule, the relative viability (NCI-H2170; first compound 0.4 µM) was 0.679, the relative viability (NCI-H2170; first compound 1.265 µM) was 0.612 and the relative viability (NCI-H2009; first compound 0.04 µM) was 0.734. The relative viability (NCI-H2009; first compound 0.1265 µM) was 0.776, the relative viability (NCI-H2009; first compound 0.4 µM) was 0.681 and the relative viability (NCI-H2009; first compound 1.265 µM) was 0.564. The relative viability (PC-14; first compound 0.04 µM) was 0.599, the relative viability (PC-14; first compound 0.1265 µM) was 0.638 and the relative viability (PC-14; first compound 0.4 µM) was 0.484. It also gave a relative viability (PC-14; first compound 1.265 µM) of 0.508, a relative viability (NCI-H3122; first compound 0.04 µM) of 0.568 and a relative viability (NCI-H3122; first compound 0.1265 µM) of 0.45. The relative viability (NCI-H3122; first compound 0.4 µM) was 0.407, the relative viability (NCI-H3122; first compound 1.265 µM) was 0.326 and the relative viability (COR-L23; first compound 0.04 µM) was 0.208. The relative viability (COR-L23; first compound 0.1265 µM) was 0.177, the relative viability (COR-L23; first compound 0.4 µM) was 0.166 and the relative viability (COR-L23; first compound 1.265 µM) was 0.119. For the same molecule, the relative viability (NCI-H1666; first compound 0.04 µM) was 0.627, the relative viability (NCI-H1666; first compound 0.1265 µM) was 0.587 and the relative viability (NCI-H1666; first compound 0.4 µM) was 0.546. For the same molecule, the relative viability (NCI-H1666; first compound 1.265 µM) was 0.419, the relative viability (SW 900; first compound 0.04 µM) was 0.638 and the relative viability (SW 900; first compound 0.1265 µM) was 0.585. It also gave a relative viability (SW 900; first compound 0.4 µM) of 0.526, a relative viability (SW 900; first compound 1.265 µM) of 0.311 and a relative viability (BEN; first compound 0.04 µM) of 0.603. For the same molecule, the relative viability (BEN; first compound 0.1265 µM) was 0.501, the relative viability (BEN; first compound 0.4 µM) was 0.49 and the relative viability (BEN; first compound 1.265 µM) was 0.437. For the same molecule, the relative viability (NCI-H1650; first compound 0.04 µM) was 0.458, the relative viability (NCI-H1650; first compound 0.1265 µM) was 0.388 and the relative viability (NCI-H1650; first compound 0.4 µM) was 0.372. For the same molecule, the relative viability (NCI-H1650; first compound 1.265 µM) was 0.295, the relative viability (NCI-H1437; first compound 0.04 µM) was 0.402 and the relative viability (NCI-H1437; first compound 0.1265 µM) was 0.466. For the same molecule, the relative viability (NCI-H1437; first compound 0.4 µM) was 0.398 and the relative viability (NCI-H1437; first compound 1.265 µM) was 0.405.
